Reference: ChEMBL document CHEMBL4665919, “Novel Tricyclic Pyroglutamide Derivatives as Potent RORγt Inverse Agonists Identified using a Virtual Screening Approach” (ACS Med Chem Lett, 2020)

Legend:
[1] = biological target: T1, Oxysterols receptor LXR-beta (Homo sapiens, UniProt P55055); assay: Inverse agonist activity at LXRbeta (unknown origin)
T1 sequence (P55055 whole entry): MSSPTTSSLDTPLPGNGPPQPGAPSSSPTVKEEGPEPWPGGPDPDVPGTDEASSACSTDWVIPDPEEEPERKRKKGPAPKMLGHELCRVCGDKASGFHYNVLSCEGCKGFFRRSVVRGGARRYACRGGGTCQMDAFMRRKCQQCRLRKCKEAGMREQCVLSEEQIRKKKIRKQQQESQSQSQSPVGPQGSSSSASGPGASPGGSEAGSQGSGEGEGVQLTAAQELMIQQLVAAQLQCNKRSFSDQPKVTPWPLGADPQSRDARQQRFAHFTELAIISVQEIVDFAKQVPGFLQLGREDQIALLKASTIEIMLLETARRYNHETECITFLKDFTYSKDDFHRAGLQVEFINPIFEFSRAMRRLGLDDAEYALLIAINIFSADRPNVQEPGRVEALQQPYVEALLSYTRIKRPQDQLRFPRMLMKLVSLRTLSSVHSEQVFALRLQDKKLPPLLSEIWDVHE

[2] = biological target: T2, Oxysterols receptor LXR-alpha (Homo sapiens, UniProt Q13133); assay: Inverse agonist activity at LXRalpha (unknown origin)
T2 sequence (Q13133 whole entry): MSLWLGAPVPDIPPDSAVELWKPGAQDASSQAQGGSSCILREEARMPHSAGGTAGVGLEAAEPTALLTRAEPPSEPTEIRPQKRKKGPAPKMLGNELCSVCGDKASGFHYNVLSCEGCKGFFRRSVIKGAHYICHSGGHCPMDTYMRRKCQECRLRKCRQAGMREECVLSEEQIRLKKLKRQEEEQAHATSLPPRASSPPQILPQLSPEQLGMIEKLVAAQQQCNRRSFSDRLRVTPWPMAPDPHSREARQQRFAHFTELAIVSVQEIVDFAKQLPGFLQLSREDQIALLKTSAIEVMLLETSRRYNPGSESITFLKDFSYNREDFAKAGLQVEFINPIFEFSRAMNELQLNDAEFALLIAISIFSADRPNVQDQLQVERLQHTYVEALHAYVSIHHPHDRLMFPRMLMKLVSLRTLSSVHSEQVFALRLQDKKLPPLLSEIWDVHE

Cytochrome P450 1A2 = biological target: T3, Cytochrome P450 1A2 (Homo sapiens, UniProt P05177); assay: Inhibition of CYP1A2 (unknown origin); format: ADME
T3 sequence (P05177 whole entry): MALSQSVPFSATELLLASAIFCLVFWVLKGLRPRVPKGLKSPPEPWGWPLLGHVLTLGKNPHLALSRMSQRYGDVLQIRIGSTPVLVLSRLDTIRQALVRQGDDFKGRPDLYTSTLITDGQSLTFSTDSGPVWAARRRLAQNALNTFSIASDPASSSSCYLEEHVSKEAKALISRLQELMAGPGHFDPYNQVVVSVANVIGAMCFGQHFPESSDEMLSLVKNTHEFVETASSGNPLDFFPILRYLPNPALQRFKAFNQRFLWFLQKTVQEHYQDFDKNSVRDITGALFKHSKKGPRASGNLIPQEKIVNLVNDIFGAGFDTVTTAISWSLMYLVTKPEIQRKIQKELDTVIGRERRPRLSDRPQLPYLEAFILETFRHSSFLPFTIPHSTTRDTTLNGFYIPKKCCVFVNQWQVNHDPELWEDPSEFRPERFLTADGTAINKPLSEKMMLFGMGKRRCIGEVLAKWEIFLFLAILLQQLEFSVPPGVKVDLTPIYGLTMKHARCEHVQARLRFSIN

Cytochrome P450 3A4 = Cytochrome P450 3A4 (Homo sapiens, UniProt P08684); assay: Inhibition of CYP3A4 (unknown origin); format: ADME
[3] = Permeability across basolateral to apical side in human Caco2 cells; format: ADME, cell-based; settings: Caco-2, read-out: permeability
[4] = Kinetic solubility of compound in acetate buffer at pH 4; format: physicochemical; settings: read-out: Kinetic_solubility
[5] = Clearance in BALB/c mouse at 2 mg/kg, iv; format: ADME, organism-based; settings: in vivo
[6] = Volume of distribution at steady state in BALB/c mouse at 2 mg/kg, iv; format: ADME, organism-based; settings: in vivo, read-out: Vdss

Cytochrome P450 3A4, sequence (P08684 whole entry): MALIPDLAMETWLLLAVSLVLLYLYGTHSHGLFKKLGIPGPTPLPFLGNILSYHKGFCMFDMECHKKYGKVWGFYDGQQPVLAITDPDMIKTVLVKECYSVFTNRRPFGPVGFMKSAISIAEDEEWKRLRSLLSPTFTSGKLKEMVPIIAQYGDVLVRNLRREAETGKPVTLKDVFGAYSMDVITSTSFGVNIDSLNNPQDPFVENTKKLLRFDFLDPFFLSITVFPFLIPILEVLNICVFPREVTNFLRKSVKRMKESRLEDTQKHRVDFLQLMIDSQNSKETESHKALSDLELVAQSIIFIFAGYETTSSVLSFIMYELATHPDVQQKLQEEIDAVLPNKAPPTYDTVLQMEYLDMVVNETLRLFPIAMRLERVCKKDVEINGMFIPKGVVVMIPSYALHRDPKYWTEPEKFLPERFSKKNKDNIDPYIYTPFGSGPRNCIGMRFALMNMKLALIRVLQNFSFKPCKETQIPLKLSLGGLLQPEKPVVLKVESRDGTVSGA

EC50 [1]: > 7.5 µM
EC50 [2]: > 7.5 µM
IC50 (Cytochrome P450 1A2): > 20 µM
IC50 (Cytochrome P450 3A4): > 20 µM
Papp B→A [3]: 19 ×10⁻⁶ cm/s
solubility kinetic [4]: < 1 µg/mL
clearance [5]: 2 mL/min/kg
Vd [6]: 2.7 L/kg
SMILES: CC(C)(O)CN1C(=O)[C@H](F)C[C@H]1C(=O)N1CC[C@@]2(S(=O)(=O)c3ccc(F)cc3)c3ccc(C(F)(C(F)(F)F)C(F)(F)F)cc3CC[C@@H]12
